Measurements from patent publication US6479293B1, “Temperature indicating material and temperature monitoring member” (Toshiba Tec Kabushiki Kaisha, priority 1999, dated 2002).

Experimental: The solubility of propyl gallate (PG) in molten cyclododecanol (CD) was studied. […] Here, temperature indicating members were prepared by adding cylododecanol (CD) in an amount permitting dissolution of 8 times the amount (Example 3), 4 times the amount (Example 4), twice the amount (Example 5), 1.2 times the amount (Example 6) and 0.8 time the amount (Example 7) of 1 part by weight of propyl gallate (PG), respectively. […] As comparative examples, a temperature indicating material free of cyclododecanol (CD) and that containing 5 parts by weight of 1-docosanol, which is a linear saturated alcohol, instead of cyclododecanol (CD) were prepared in Comparative Example 4 and Comparative Example 5, respectively.

SMILES | Solubility | Solubility of propyl gallate (PG) in molten cyclododecanol (CD)
O=C(c1ccc(O)cc1)c1ccc(O)c(O)c1O [Example 2344, 2,3,4,4′-tetrahydroxybenzophenone] | 2 | –
CC(C)(c1ccc(O)cc1)c1ccc(O)cc1 [HBA, bisphenol A] | 3 | –
CCCCCCCCCCCCOC(=O)c1cc(O)c(O)c(O)c1 [LG, lauryl gallate] | 10 | –
CCCOC(=O)c1cc(O)c(O)c(O)c1 [PG, propyl gallate] | 8 | at least 0.8 g
